Measurements taken from patent US11413278B2, “Compounds and methods for promoting stress resistance” (priority 2015, dated 2022).
Like-named read-outs stand apart in the source and are kept apart here.

Legend:
NRF2 [1] = experiment: qPCR analysis of NRF2-regulated genes; format: cell-based, human; conditions: for fold induction at 10 µM: Homo sapiens
Summary of the method: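 Expression of HMOX1, NQO1, GCLC and GSTM1 measured by qPCR relative to B2M, PPIA and GAPDH. Cells were WI-38 fibroblasts exposed 24 hrs to 10 μM compound, with RNA and cDNA prepared via Cells-to-Ct. Where stated, cells were first transfected 36 hrs with FOXO3 or NRF2 siRNA at 10 nM.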

NRF2 [2] = experiment: in vitro; format: cell-based, human
mTOR = mTOR inhibition (RPS6 phosphorylation status), In-Cell Western; format: cell-based, human
Experimental: In-Cell Western assays were performed, following a standard immuno-staining protocol. Briefly, WI-38 cells were treated with small molecules for 24 hrs, and then processed and incubated with primary antibody cocktail (Cell Signaling, mouse anti-RPS, 1:25; rabbit-anti-pRPS6-(Ser-235/236), 1:100) overnight at 4° C. Next day, samples were processed and incubated with fluorophore-conjugated secondary antibodies (Cell Signaling, DyLight 680-goat anti-mouse, 1:500; DyLight 800-goat anti-rabbit, 1:1,000). Images were collected on an Odyssey Imager (LI-COR) and analyzed with the Image Studio Lite software (version 5.0.21).
Mammalian target of rapamycin (mTOR) is a crucial regulator of cell growth and metabolism and has been implicated in aging and many diseases, including cancer, diabetes and neurological diseases (Dazert and Hall, 2011; Zoncu et al., 2011). […] In addition, the anti-diabetes drug metformin (Kalender et al., 2010), as well as other AMPK activators such as 2-deoxy-D-glucose (Inoki et al., 2003) and AICAR (Shaw et al., 2004), could inhibit mTORC1. Applicants examined the effects of our molecules (at three doses, 5 μM, 10 μM and 20 μM) on the phosphorylation status of ribosomal protein S6 (RPS6), a readout of mTOR activity, to ask whether they could inhibit mTOR.
In-Cell Western assays were performed, following the same procedures to analyze DNA-damage markers. WI-38 cells were incubated with small molecules for 24 hrs, and then processed and incubated with primary antibody cocktail (mouse anti-RPS, 1:25; rabbit-anti-pRPS6, 1:100) overnight at 4° C. Next day, samples were processed and incubated with fluorophore-conjugated secondary antibodies (goat anti-mouse, 1:500; goat anti-rabbit, 1:1,000) in antibody dilution buffer. Images were collected on an Odyssey Imager (LI-COR) and analyzed with the Image Studio Lite software.

[3] = tested on: PC12 cells expressing poly(Q)103-Htt-EGFP; experiment: Poly(Q) toxicity & viability analysis (cellular model of Huntington's disease); format: cell-based, rat; conditions: for Viability of PC12 cells upon induction of toxic poly(Q)103-Htt-EGFP aggregates: 2.5 μM, 5 μM, 10 μM and 20 μM; for Assay 20: Huntington's poly-Q toxicity attenuation: 10 uM, YES/NO; for M = Huntington's poly-Q toxicity attenuation: score; for K = Huntington's poly-Q toxicity attenuation: summary score
Experimental: Viability assays were performed as described before (Aiken et al., 2004). PC12 cells that stably express the inducible poly(Q)103-Htt-EGFP were grown in culture. […] Cell viability was analyzed 48 hrs later by measuring ATP content with CellTiter-Glo.
Toxic protein aggregation is a key feature of many age-related neurodegenerative diseases, including Alzheimer's and Huntington's disease (Caughey and Lansbury, 2003; Ross and Poirier, 2004). A number of animal models (Phillips et al., 2009) and cell models (Schlachetzki et al., 2013) have been established to study these diseases. For this purpose, PC12 rat pheochromocytoma cells display neuronal features and produce neurotransmitters and have been used extensively to study neuronal phenotypes, including synaptic transmission and neurological diseases. […] In this model, induced expression of poly(Q)103-Htt-EGFP could lead to the formation of aggregates and exert substantial toxicity in cells.

WI-38 cells = conditions: for No H2O2 stress treatment, at 10 uM (fold change): normalized ATP measurement; for Assay 1: H2O2-resistant: YES/NO, if NO, possibly due to repeated freezing/thawing of stocks
[4] = 24 h, Assay 12(o), at 10 uM, qPCR, read-out: Induction of NRF2-regulated genes: GCLC normalized fold-change
[5] = 24 h, Assay 12(o), at 10 uM, qPCR, read-out: Induction of NRF2-regulated genes: GSTM1 normalized fold-change
[6] = rounded fold change, WI-38 cells, 10 μM, 24 hrs (RP29 for Gr-4D), read-out: Summary of effects on NRF2-regulated genes: GSTM1
[7] = rounded fold change, WI-38 cells, 10 μM, 24 hrs (RP29 for Gr-4D), read-out: Summary of effects on NRF2-regulated genes: NQO1
[8] = rounded fold change, WI-38 cells, 10 μM, 24 hrs, read-out: Summary of effects on NRF2-regulated genes: GCLC
[9] = 10 μM, 24 hrs, WI-38 cells, qPCR, normalized to B2M, n = 4, read-out: GCLC expression, normalized fold change (NRF2-regulated gene)
[10] = 10 μM, 24 hrs, WI-38 cells, qPCR, normalized to B2M, n = 4, read-out: GSTM1 expression, normalized fold change (NRF2-regulated gene)
[11] = 10 μM, 24 hrs, WI-38 cells, qPCR, normalized to B2M, n = 4, read-out: NQO1 expression, normalized fold change (NRF2-regulated gene)
[12] = WI-38 cells, 10 μM, 24 hrs, n=4, qPCR normalized by B2M, read-out: GCLC Normalized fold change
[13] = WI-38 cells, 10 μM, 24 hrs, n=4, qPCR normalized by B2M, read-out: GSTM1 Normalized fold change
[14] = WI-38 cells, 10 μM, 24 hrs, n=4, qPCR normalized by B2M, read-out: HMOX1 Normalized fold change
[15] = WI-38 cells, 10 μM, 24 hrs, n=4, qPCR normalized by B2M, read-out: NQO1 Normalized fold change
[16] = WI-38 cells, 10 μM, (*) = compromised ability to protect cells from H2O2, could be due to stability issue
[17] = asterisks indicate the loss of the ability to protect cells from H2O2 over time
[18] = derived from dose response curves, 0.6-20 uM, H2O2-resistance of WI-38 cells
[19] = read-out: Est. ED50, dose response 0.6-20 μM, H2O2-resistance
[20] = 24 h, Assay 12(o), at 10 uM, qPCR, read-out: Induction of NRF2-regulated genes: NQO1 normalized fold-change

Structure (SMILES) | F = Potential NRF2 Activation (NRF2 [1]; 2-point score) | fold induction at 10 µM (NRF2 [1]; [4]) | fold induction at 10 µM (NRF2 [1]; [6]) | fold induction at 10 µM (NRF2 [1]; [12]) | fold induction at 10 µM (NRF2 [1]; [13]) | fold induction at 10 µM (NRF2 [1]; [14]) | fold induction at 10 µM (NRF2 [1]; [15]) | F = Potential NRF2 Activation (NRF2 [1]; summary score) | J = NRF2-dependency for H2O2-resistance (NRF2 [2]; score) | J = NRF2-dependency for H2O2-resistance (NRF2 [2]; summary score) | G = mTOR down-regulation (mTOR; 2-point score) | G = mTOR down-regulation (mTOR; summary score) | M = Huntington's poly-Q toxicity attenuation [3] | K = Huntington's poly-Q toxicity attenuation [3] | H2O2-resistant (WI-38 cells; [16]) | No H2O2 stress treatment, at 10 uM (fold change) (WI-38 cells; WI-38 cells) | Assay 1: H2O2-resistant (WI-38 cells) | H2O2-resistant (WI-38 cells; [17]) | EC50 (WI-38 cells; [18]) | EC50 (WI-38 cells; [19]) | further results
NS(=O)(=O)c1ccc(NC(=O)c2ccc([N+](=O)[O-])o2)cc1 [Gr-1A] | 2 | 1.48 | 1.45 | 1.61 | 2.53 | 0.973 | 1.79 | 0 | 1 | 1 | 0 | 0 | 1 | 1 | YES | 0.72 fold change | YES | YES | 6 µM | 2.53 µM | fold induction at 10 µM (NRF2 [1]; [5]): 1.45; fold induction at 10 µM (NRF2 [1]; [7]): 1.79; fold induction at 10 µM (NRF2 [1]; [8]): 1.61; fold induction at 10 µM (NRF2 [1]; 10 μM, 24 hrs, WI-38, read-out: Expression of at least two NRF2 target genes): > 1.5; fold induction at 10 µM (NRF2 [1]; [9]): 1.61; fold induction at 10 µM (NRF2 [1]; [10]): 1.45; fold induction at 10 µM (NRF2 [1]; [11]): 1.79; Survival of NRF2 siRNA-transfected cells in the absence of H2O2 (NRF2 [2]): could reduce the survival; NRF2-dependency for H2O2-resistance, at 10 uM - with H2O2, 2nd experiment (NRF2 [2]; 10 uM, experiment 2 (2nd), with H2O2): 2nd, partial.; NRF2-dependency for H2O2-resistance, 2nd experiment (NRF2 [2]; 10 uM, with H2O2, NRF2 knockdown in WI-38 cells, YES = resistance reduced by at least 50%, partial = 25% to 50%): partial; Assay 17: NRF2-dependency for H2O2-resistance (NRF2 [2]; 10 uM, YES/NO): YES; NRF2-dependency of H2O2-resistance (NRF2 siRNA knockdown) (NRF2 [2]; at least 2 of 3 independent experiments): significantly attenuate; viability of non-stressed cells, reduced by (NRF2 [2]; human, 24 h, 10 uM): by 30%); Viability of PC12 cells upon induction of toxic poly(Q)103-Htt-EGFP aggregates [3]: consistently increased the viability; Assay 20: Huntington's poly-Q toxicity attenuation [3]: YES
O=C(Nc1cc(C(F)(F)F)ccc1Cl)c1ccc([N+](=O)[O-])o1 [Gr-1B] | 0 | 1.24 | 2 | 1.44 | 2 | 1.31 | 1.31 | 0 | 0 | 0 | 0 | 0 | 0 | 0 | YES | 0.94 fold change | YES | YES | 6.2 µM | 2.65 µM | fold induction at 10 µM (NRF2 [1]; [5]): 1.44; fold induction at 10 µM (NRF2 [1]; [20]): 1.19; fold induction at 10 µM (NRF2 [1]; [7]): 1.31; fold induction at 10 µM (NRF2 [1]; [10]): 2; fold induction at 10 µM (NRF2 [1]; [11]): 1.31
CCc1ccccc1NC(=O)c1ccc([N+](=O)[O-])o1 [Gr-1C] | 0 | 1.65 |  | 1.82 | 1.77 | 1.32 | 1.46 | 0 | 0 | 0 | 0 | 0 | 1 | 1 | YES | 0.81 fold change | YES | YES | 8 µM | 2.66 µM | Induction of at least two NRF2-regulated genes (HMOX1, NQO1, GCLC, GSTM1) (NRF2 [1]; 10 μM, 24 hrs, WI-38): could induce expression of at least two genes; fold induction at 10 µM (NRF2 [1]; [20]): 1.33; fold induction at 10 µM (NRF2 [1]; [7]): 1.46; fold induction at 10 µM (NRF2 [1]; [8]): 1.82; fold induction at 10 µM (NRF2 [1]; [9]): 1.82; fold induction at 10 µM (NRF2 [1]; [11]): 1.46; Viability of PC12 cells upon induction of toxic poly(Q)103-Htt-EGFP aggregates [3]: consistently increased the viability; Assay 20: Huntington's poly-Q toxicity attenuation [3]: YES
O=C(Nc1cccc(Cl)c1)c1ccc([N+](=O)[O-])o1 [Gr-1D] | 0 |  |  | 1.08 | 1.17 | 4.68 | 0.878 | 0 | 0 | 0 | 0 | 0 | 0 | 0 | YES | 0.91 fold change | YES | YES | 4.6 µM | 2.68 µM | fold induction at 10 µM (NRF2 [1]; rounded fold change, WI-38 cells, 10 μM, 24 hrs (RP11 for Gr-1D, RP29 for Gr-4D), read-out: Summary of effects on NRF2-regulated genes: HMOX1): 4.68; fold induction at 10 µM (NRF2 [1]; 10 μM, 24 hrs, WI-38 cells, qPCR, normalized to B2M, n = 4, read-out: HMOX1 expression, normalized fold change (NRF2-regulated gene)): 4.68; Summary of effects on NRF2-regulated genes: HMOX1, second run (NRF2 [1]; run RP42 (Gr-1D) / RP52 (Gr-4D), WI-38 cells, 10 μM): 5.86,; Summary of effects on NRF2-regulated genes: GCLC, second run (NRF2 [1]; run RP42 (Gr-1D), WI-38 cells, 10 μM): 0.79,
O=C(Nc1cccc(C(F)(F)F)c1)c1ccc([N+](=O)[O-])o1 [Gr-1E] | 0 | 1.36 | 2.11 | 1.55 | 2.11 | 1.06 | 1.11 | 0 | 0 | 0 | 0 | 0 | 0 | 0 | YES | 0.96 fold change | YES | YES | 3.7 µM | 2.76 µM | fold induction at 10 µM (NRF2 [1]; 24 h, Assay 12(o), at 10 uM, qPCR, read-out: Induction of NRF2-regulated genes: HMOX1 normalized fold-change): 0.79; fold induction at 10 µM (NRF2 [1]; [10]): 2.11
